Measured values published in patent publication US9321809B2, “Macrocyclic compounds for suppressing replication of hepatitis C virus” (Ginkgo Pharma Co., Ltd., priority 2012, dated 2016).

test system: HCV replicon-containing huh-7 cells (replicon 1b); test: HCV Replicon Assay (luciferase readout); format: cell-based; settings: Hepatitis C virus; HCV replicon 1b in huh-7 cells, 48 h incubation, 1% DMSO, luciferase signal; read-out: EC50 (EC 50 on replicon 1b)
Protocol: Compounds of formuala (I) are tested for the ability to inhibit viral replication of the Hepatitis C viruses by the following in vitro assays.
DMEM (Life Technologies #41965-039) was supplemented with 10% FBS, 2 mM L-glutamine (Life Technologies #25030-024), penicillin (100 units/ml)/streptomycin (100 micrograms/ml) (Life Technologies #15140-114), 1× non-essential amino acids (Life Technologies #11140-035).
Complete media was prepared by mixing FBS, DMEM media with Geneticin (G418). The compete media was preincubated at 37° C. in a CO2 incubator. Then, HCV replicon-containing huh-7 cells (V. Lohmann et. al. Science, 285, (1999)110-113) was taken out from 37° C. incubator. The residual medium was absorbed, and the cells were washed with PBS. After washing fluid was removed, 1 ml 0.25% trypsin/0.02% EDTA solution. The cells were washed by the above trypsin/EDTA solution to make sure that each cell was cleaned. After the trypsin/EDTA solution was absorbed, the mixture was incubated at 37° C. in a CO2 incubator for 3-5 minutes. Morphological changes were observed by inverted microscope, till the cells were detached from the wall of container completely.
3 ml of complete media was added to make the cells to suspend. The cells are counted with hematometer. Appropriate volumes of the complete media was added to adjust the cell density to 100,000/ml. Cells were plated with 100 μl of suspension at 10,000/well of 96 well plate. Plates were placed into 37° C. 5% CO2 incubator for 24 h.
Preparation of Drug Solution:
Drugs were diluted under aseptic conditions.
Stock solutions may be prepared before the assay, which means that the test compounds are dissolved in 100% DMSO to afford a final concentration of 2 mM. Before the 96 well culture was completed, the stock solution was diluted with culter media to 100 fold of the final concentration (100× solution).
96-well plates were taken out from 37° C. CO2 incubator and morphological changes were observed by inverted microscope. In a ventilator, 1 μl of 100× drug solution was added to wells of 96 well plate until the final concentration of DMSO in the mixture is 1%. The plates were incubated at 37° C. in a CO2 environment for 48 h. 30 μl of Stead-G1® Luciferase Assay System (bought from Promega) was added to each well of 96 well plates and each plate is shaken in a plate shaker for 5 minutes to ensure cells cleavaged completely. The fluorescence signal was quantitated in a Perkin-Elmer plate reader (Envision) and integral time was setted to be 2 second. The following data were achieved after recording and analyzing the data.

Compound | EC50 [nM]
C=C[C@@H]1C[C@]1(NC(=O)[C@@H]1C[C@@H]2CN1C(=O)[C@H](C(C)(C)C)NC(=O)[C@@H](NC(=O)NC(C)(C)C)COC/C=C/c1cccc3c1CN(C3)C(=O)O2)C(=O)NS(=O)(=O)C1CC1 [Compound IIa-12, (1R,12E,17S,20S,23S)-20-tert-butyl-17-[(tert-butylcarbamoyl)amino]-N-[(1R,2S)-1-[(cyclopropanesulfonyl)carbamoyl]-2-ethenylcyclopropyl]-3,18,21-trioxo-2,15-dioxa-4,19,22-triazatetracyclo[20.2.1.1^4,7.0^6,11]hexacosa-6,8,10,12-tetraene-23-carboxamide] | < 10
C=C[C@@H]1C[C@]1(NC(=O)[C@@H]1C[C@@H]2CN1C(=O)[C@H](C(C)(C)C)NC(=O)[C@@H](NC(=O)OC(C)(C)C)COCCCc1cccc3c1CN(C3)C(=O)O2)C(=O)NS(=O)(=O)C1CC1 [Compound IIa-13, tert-butyl N-[(1R,17S,20S,23S)-20-tert-butyl-23-{[(1R,2S)-1-[(cyclopropanesulfonyl)carbamoyl]-2-ethenylcyclopropyl]carbamoyl}-3,18,21-trioxo-2,15-dioxa-4,19,22-triazatetracyclo[20.2.1.1^4,7.0^6,11]hexacosa-6,8,10-trien-17-yl]carbamate] | 10 to 50
CC[C@@H]1C[C@]1(NC(=O)[C@@H]1C[C@@H]2CN1C(=O)[C@H](C(C)(C)C)NC(=O)[C@@H](NC(=O)OC(C)(C)C)COCCCc1cccc3c1CN(C3)C(=O)O2)C(=O)NS(=O)(=O)C1CC1 [Compound IIa-14, tert-butyl N-[(1R,17S,20S,23S)-20-tert-butyl-23-{[(1R,2R)-1-[(cyclopropanesulfonyl)carbamoyl]-2-ethylcyclopropyl]carbamoyl}-3,18,21-trioxo-2,15-dioxa-4,19,22-triazatetracyclo[20.2.1.1^4,7.0^6,11]hexacosa-6,8,10-trien-17-yl]carbamate] | 50 to 500
CC[C@@H]1C[C@]1(NC(=O)[C@@H]1C[C@@H]2CN1C(=O)[C@H](C(C)(C)C)NC(=O)[C@@H](NC(=O)OC(C)(C)C)COC/C=C/c1cccc3c1CN(C3)C(=O)O2)C(=O)NS(=O)(=O)C1CC1 [Compound IIa-15, tert-butyl N-[(1R,12E,17S,20S,23S)-20-tert-butyl-23-{[(1R,2R)-1-[(cyclopropanesulfonyl)carbamoyl]-2-ethylcyclopropyl]carbamoyl}-3,18,21-trioxo-2,15-dioxa-4,19,22-triazatetracyclo[20.2.1.1^4,7.0^6,11]hexacosa-6,8,10,12-tetraen-17-yl]carbamate] | < 10
C=C[C@@H]1C[C@]1(NC(=O)[C@@H]1C[C@@H]2CN1C(=O)[C@H](C1CCCCC1)NC(=O)[C@@H](NC(=O)OC(C)(C)C)COCCCc1cccc3c1CN(C3)C(=O)O2)C(=O)NS(=O)(=O)C1CC1 [Compound IIa-17, tert-butyl N-[(1R,17S,20S,23S)-20-cyclohexyl-23-{[(1R,2S)-1-[(cyclopropanesulfonyl)carbamoyl]-2-ethenylcyclopropyl]carbamoyl}-3,18,21-trioxo-2,15-dioxa-4,19,22-triazatetracyclo[20.2.1.1^4,7.0^6,11]hexacosa-6,8,10-trien-17-yl]carbamate] | < 10
CC[C@@H]1C[C@]1(NC(=O)[C@@H]1C[C@@H]2CN1C(=O)[C@H](C1CCCCC1)NC(=O)[C@@H](NC(=O)OC(C)(C)C)COCCCc1cccc3c1CN(C3)C(=O)O2)C(=O)NS(=O)(=O)C1CC1 [Compound IIa-18, tert-butyl N-[(1R,17S,20S,23S)-20-cyclohexyl-23-{[(1R,2R)-1-[(cyclopropanesulfonyl)carbamoyl]-2-ethylcyclopropyl]carbamoyl}-3,18,21-trioxo-2,15-dioxa-4,19,22-triazatetracyclo[20.2.1.1^4,7.0^6,11]hexacosa-6,8,10-trien-17-yl]carbamate] | 10 to 50
CC[C@@H]1C[C@]1(NC(=O)[C@@H]1C[C@@H]2CN1C(=O)[C@H](C1CCCCC1)NC(=O)[C@@H](NC(=O)OC(C)(C)C)COC/C=C/c1cccc3c1CN(C3)C(=O)O2)C(=O)NS(=O)(=O)C1CC1 [Compound IIa-19, tert-butyl N-[(1R,12E,17S,20S,23S)-20-cyclohexyl-23-{[(1R,2R)-1-[(cyclopropanesulfonyl)carbamoyl]-2-ethylcyclopropyl]carbamoyl}-3,18,21-trioxo-2,15-dioxa-4,19,22-triazatetracyclo[20.2.1.1^4,7.0^6,11]hexacosa-6,8,10,12-tetraen-17-yl]carbamate] | < 10
C=C[C@@H]1C[C@]1(NC(=O)[C@@H]1C[C@@H]2CN1C(=O)[C@H](C(C)(C)C)NC(=O)[C@@H](NC(=O)OC(C)(C)C)CCOC/C=C/c1cccc3c1CN(C3)C(=O)O2)C(=O)NS(=O)(=O)C1CC1 [Compound IIa-20] | < 10
C=C[C@@H]1C[C@]1(NC(=O)[C@@H]1C[C@@H]2CN1C(=O)[C@H](C(C)(C)C)NC(=O)[C@@H](NC(=O)OC(C)(C)C)CSC/C=C/c1cccc3c1CN(C3)C(=O)O2)C(=O)NS(=O)(=O)C1CC1 [Compound IIa-21, tert-butyl N-[(1R,12E,17R,20S,23S)-20-tert-butyl-23-{[(1R,2S)-1-[(cyclopropanesulfonyl)carbamoyl]-2-ethenylcyclopropyl]carbamoyl}-3,18,21-trioxo-2-oxa-15-thia-4,19,22-triazatetracyclo[20.2.1.1^4,7.0^6,11]hexacosa-6,8,10,12-tetraen-17-yl]carbamate] | 10 to 50
C=C[C@@H]1C[C@]1(NC(=O)[C@@H]1C[C@@H]2CN1C(=O)[C@H](C1CCCC1)NC(=O)[C@@H](NC(=O)OC(C)(C)C)COC/C=C/c1cccc3c1CN(C3)C(=O)O2)C(=O)NS(=O)(=O)C1CC1 [Compound IIa-22, tert-butyl N-[(1R,12E,17S,20S,23S)-20-cyclopentyl-23-{[(1R,2S)-1-[(cyclopropanesulfonyl)carbamoyl]-2-ethenylcyclopropyl]carbamoyl}-3,18,21-trioxo-2,15-dioxa-4,19,22-triazatetracyclo[20.2.1.1^4,7.0^6,11]hexacosa-6,8,10,12-tetraen-17-yl]carbamate] | < 10
C=C[C@@H]1C[C@]1(NC(=O)[C@@H]1C[C@@H]2CN1C(=O)[C@H](C(C)(C)C)NC(=O)[C@@H](NC(=O)OC(C)(C)C)COC/C=C/c1cc3c(nccc3cc1OC)O2)C(=O)NS(=O)(=O)C1CC1 [Compound IIb-1, tert-butyl N-[(3R,5S,8S,11S,15E)-8-tert-butyl-5-{[(1R,2S)-1-[(cyclopropanesulfonyl)carbamoyl]-2-ethenylcyclopropyl]carbamoyl}-18-methoxy-7,10-dioxo-2,13-dioxa-6,9,23-triazatetracyclo[15.6.2.1^3,6.0^20,24]hexacosa-1(23),15,17(25),18,20(24),21-hexaen-11-yl]carbamate] | < 10
C=C[C@@H]1C[C@]1(NC(=O)[C@@H]1C[C@@H]2CN1C(=O)[C@H](C(C)(C)C)NC(=O)[C@@H](NC(=O)OC(C)(C)C)COCCCc1cc3c(nccc3cc1OC)O2)C(=O)NS(=O)(=O)C1CC1 [Compound IIb-2, tert-butyl N-[(3R,5S,8S,11S)-8-tert-butyl-5-{[(1R,2S)-1-[(cyclopropanesulfonyl)carbamoyl]-2-ethenylcyclopropyl]carbamoyl}-18-methoxy-7,10-dioxo-2,13-dioxa-6,9,23-triazatetracyclo[15.6.2.1^3,6.0^20,24]hexacosa-1(23),17(25),18,20(24),21-pentaen-11-yl]carbamate] | < 10
C=C[C@@H]1C[C@]1(NC(=O)[C@@H]1C[C@@H]2CN1C(=O)[C@H](C1CCCCC1)NC(=O)[C@@H](NC(=O)OC(C)(C)C)COCCCc1cc3c(nccc3cc1OC)O2)C(=O)NS(=O)(=O)C1CC1 [Compound IIb-4, tert-butyl N-[(3R,5S,8S,11S)-8-cyclohexyl-5-{[(1R,2S)-1-[(cyclopropanesulfonyl)carbamoyl]-2-ethenylcyclopropyl]carbamoyl}-18-methoxy-7,10-dioxo-2,13-dioxa-6,9,23-triazatetracyclo[15.6.2.1^3,6.0^20,24]hexacosa-1(23),17(25),18,20(24),21-pentaen-11-yl]carbamate] | < 10
